Measured values reported in patent publication US20250382574A1, “CELL CULTURE METHOD” (Takeda Pharmaceutical Company Limited, priority 2022, published 2025).
Like-named read-outs stand apart in the source and are kept apart here.

What was measured:
[1] = tested on: iPS cell-derived CAR-T cells; details: 0.3 mM boric acid added to serum-free medium; FIG. 2
Experimental: After 3 days of activation culture, the cells were collected from the T225 flask and suspended in each of the two types of expansion culture media at 40,000 cells/mL, and cultured under 5% CO2/37° C. using G-Rex (registered trademark) 10M (Wilson Wolf). Then, on the fifth day of culture, some of the cells were collected from G-Rex (registered trademark) 10M and counted, and the medium was replaced with each medium. On the 7th and 10th days of culture, the cells were counted by a similar method, seeded in a G-Rex (registered trademark) 24-well plate at 50, 000 cells/mL, and cultured in each medium. On the 12th and 14th days of culture, some of the cells were similarly collected from the plate, counted, and the medium was replaced with each medium.

[2] = tested on: human-derived primary T cell-derived CAR-T cells; details: boric acid 0.3 mM added to serum-free medium (BM220720); FIG. 5
[3] = tested on: iPS cell-derived CAR-T cells; details: boric acid concentration range of 0.2 mM to 0.9 mM, serum-free medium; FIG. 3
Experimental: After 3 days of activation culture, the cells were collected from the T225 flask and suspended in each of the five types of expansion culture media at 50,000 cells/mL, and cultured under 5% CO2/37° C. using G-Rex (registered trademark) 24-well plate (Wilson Wolf). Then, on the fifth day of culture, some of the cells were recovered from G-Rex (registered trademark) 24-well plate and the cells were counted, and the medium was replaced with the respective medium. On the 7th day of culture, the cells were counted by a similar method, seeded in a fresh G-Rex (registered trademark) 24-well plate at 50,000 cells/mL, and cultured in each medium. On the 10th and 12th days of culture, some of the cells were similarly collected from the plate, counted, and the medium was replaced with each medium.

[4] = tested on: iPS cell-derived CAR-T cells; experiment: Proliferation test, ITS-X and taurine added to 0.3 mM boric acid-containing serum-free medium; format: cell-based; details: for viability (%): serum-free expansion medium, boric acid 0.3 mM
Experimental: A total of five types of expansion culture media were prepared: Advanced DMEM/F12 medium (Thermo Fisher) containing additives shown in the “expansion culture medium” column in Table 4, and said medium further added with either 0.3 mM boric acid (Sigma-Aldrich), 0.3 mM boric acid and 1×ITS-X ((Insulin-Transferrin-Selenium-Ethanolamine Supplements) Gibco), 0.3 mM boric acid and 1×ITS-X and 1 mM taurine (Sigma-Aldrich), or 0.3 mM boric acid and 1×ITS-X and 3 mM taurine (medium supplemented with only additives in Table 4, medium supplemented with additives in Table 4+0.3 mM boric acid, medium supplemented with additives in Table 4+0.3 mM boric acid+ITS-X, medium supplemented with additives in Table 4+0.3 mM boric acid+ITS-X+1 mM taurine, medium supplemented with additives in Table 4+0.3 mM boric acid+ITS-X+3 mM taurine). After 3 days of activation culture, the cells were collected from the T225 flask and suspended in each of the five types of expansion culture media at 40,000 cells/mL, and cultured under 5% CO2/37° C. using G-Rex (registered trademark) 10M (Wilson Wolf). Then, on the fifth day of culture, some of the cells were recovered from G-Rex (registered trademark) 10M and the cells were counted, and the medium was replaced with the respective medium. On the sixth day of culture, some of the cells were recovered from G-Rex (registered trademark) 10M and the cells were counted. On the 7th and 10th days of culture, some of the cells were recovered from the plate, counted, and seeded onto a G-Rex (registered trademark) 24-well plate (Wilson Wolf) containing each medium at 50,000 cells/mL. On the 12th and 14th days of culture, some of the cells were similarly collected from the G-Rex (registered trademark) 24-well plate, counted, and the medium was replaced with each medium.
In the expansion culture of item 5 in Example 4, the cell number and viability of iPS cell-derived CAR-T cells were measured on days 3, 5, 6, 7, 10, 12, and 14 of culture.

[5] = tested on: iPS cell-derived CAR-T cells; details: 0.3 mM boric acid added to 1% FBS-containing medium; FIG. 1
Text: Then, on the fifth day of culture, some of the cells were recovered from G-Rex (registered trademark) 10M and the cells were counted, and the medium was replaced with the respective medium. On the sixth day of culture, some of the cells were recovered from G-Rex (registered trademark) 10M and the cells were counted. […] On the 12th and 14th days of culture, some of the cells were similarly collected from the G-Rex (registered trademark) 24-well plate, counted, and the medium was replaced with each medium.

Row | Structure (SMILES) | proliferation (cell proliferation fold from day 0 of expansion culture) [1] | proliferation (cell proliferation fold from day 0 of expansion culture) [2] | cell viability [3] | viability (%) ([4]; Day 5) | viability (%) ([4]; Day 6) | viability (%) ([4]; Day 7) | viability (%) ([4]; Day 10) | viability (%) ([4]; Day 12) | viability (%) ([4]; Day 14) | proliferation (cell proliferation fold from day 0 of expansion culture) [5] | maximum difference (%) in viability between (3): without addition of Taurine and (4) or (5): with addition of Taurine ([4]; Day 5) | maximum difference (%) in viability between (3): without addition of Taurine and (4) or (5): with addition of Taurine ([4]; Day 6) | maximum difference (%) in viability between (3): without addition of Taurine and (4) or (5): with addition of Taurine ([4]; Day 7) | maximum difference (%) in viability between (3): without addition of Taurine and (4) or (5): with addition of Taurine ([4]; Day 10) | maximum difference (%) in viability between (3): without addition of Taurine and (4) or (5): with addition of Taurine ([4]; Day 12) | maximum difference (%) in viability between (3): without addition of Taurine and (4) or (5): with addition of Taurine ([4]; Day 14)
1 | OB(O)O [Boric acid, boric acid] | promoted | promoted | not influenced | 88.7% | 88.6% | 87.5% | 90.3% | 90.4% | 88.3% | promoted | – | – | – | – | – | –
2 | NCCS(=O)(=O)O [Taurine, taurine] | – | – | – | – | – | – | – | – | – | – | 2.9% | 1.6% | 2.5% | 3.7% | 1.9% | 1.3%
